Patent publication US8389523B2, “Substituted quinoxaline and an agrochemical composition thereof” (Kumiai Chemical Industry Co., Ltd., priority 2007, dated 2013)

What was measured:
Type in all cases: in vivo
Set-up in all cases: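 grade 0 to 5 of growth suppression where 5 is 90% or more and 0 below 10%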
[1] = test system: Echinochloa crus-galli (L.) P. Beauv. var. crus-galli; assay: Herbicidal effects in upland field foliar treatment (Test Example 3); conditions: 1000 g of the active ingredient per hectare, 14th day after the treatment, wettable powder, criteria of Table 138
Outline: (§1)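 Plants grown two weeks from seed in upland soil in a greenhouse, then sprayed overall with water-diluted wettable powder at 1000 L/ha delivering 1000 g active ingredient/ha. Herbicidal effect scored by rating criteria 14 days after treatment.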

[2] = test system: Abutilon theophrasti medicus; assay: as above; conditions: 1000 g of the active ingredient per hectare, 14th day after the treatment, wettable powder, criteria of Table 138
Outline: as §1

[3] = test system: Amaranthus viridis L.; assay: as above; conditions: 1000 g of the active ingredient per hectare, 14th day after the treatment, wettable powder, criteria of Table 138
Outline: as §1

[4] = test system: Abutilon theophrasti medicus; assay: Herbicidal effects in upland field soil treatment (Test Example 2); conditions: 1000 g active ingredient per hectare, 21st day after treatment, criteria of Table 138
Outline: (§2)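 Pre-emergence test: seeds sown in upland soil, then soil surface sprayed with diluted wettable powder at 1000 g active ingredient per hectare (1000 liters per hectare). Greenhouse growth; herbicidal effect scored on day 21 against set criteria.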

[5] = test system: Amaranthus viridis L.; assay: as above; conditions: 1000 g active ingredient per hectare, 21st day after treatment, criteria of Table 138
Outline: as §2

[6] = test system: Monochoria vaginalis (Burm. f.) Presl var. plantaginea (Roxb.) Solms-Laub.; assay: Herbicidal effects in paddy field soil treatment (Test Example 1); conditions: paddy field soil treatment; 1000 g of the active ingredient per hectare; wettable powder added dropwise on water surface; 21st day after treatment
Outline: (§3)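 Seeds sown in puddled paddy soil, waterlogged to 3 cm depth; next day a diluted wettable powder applied dropwise to the water surface at 1000 g active ingredient per hectare. Herbicidal effect scored 21 days after treatment in a greenhouse.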

[7] = test system: Scirpus juncoides Roxb. var. ohwianus. T. Koyama; assay: as above; conditions: paddy field soil treatment; 1000 g of the active ingredient per hectare; wettable powder added dropwise on water surface; 21st day after treatment
Outline: as §3

[8] = test system: Echinochloa oryzicola Vasing; assay: as above; conditions: paddy field soil treatment; 1000 g of the active ingredient per hectare; wettable powder added dropwise on water surface; 21st day after treatment
Outline: as §3

| SMILES | herbicidal effects on Echinochloa crus-galli (L.) P. Beauv. var. crus-galli [1] | herbicidal effects on Abutilon theophrasti medicus [2] | herbicidal effects on Amaranthus viridis L. [3] | herbicidal effect (index) on Abutilon theophrasti medicus [4] | herbicidal effect (index) on Amaranthus viridis L. [5] | Herbicidal effects index, Monochoria vaginalis (Burm. f.) Presl var. plantaginea (Roxb.) Solms-Laub. [6] | Herbicidal effects index, Scirpus juncoides Roxb. var. ohwianus. T. Koyama [7] | Herbicidal effects index, Echinochloa oryzicola Vasing [8] |
| --- | --- | --- | --- | --- | --- | --- | --- | --- |
| Cn1c(=O)c(C(=O)C2=C(O)C3CCC(C3)C2=O)nc2cccnc21 (stereo not drawn) [III-5] | 5 | 5 | 5 | 5 | 4 | 5 | 5 | 5 |
| CCn1c(=O)c(C(=O)C2=C(O)CCCC2=O)nc2cccnc21 [III-7] | 4 | 5 | 5 | 5 | 5 | 5 | 5 | 5 |
| CCCn1c(=O)c(C(=O)C2=C(O)CCCC2=O)nc2cccnc21 [III-12] | 4 | 5 | 5 | 4 | 5 | 5 | 5 | 5 |
| CC(C)n1c(=O)c(C(=O)C2=C(O)CCCC2=O)nc2cccnc21 [III-13] | 4 | 5 | 5 | 5 | 5 | 5 | 5 | 5 |
| CCCCn1c(=O)c(C(=O)C2=C(O)CCCC2=O)nc2cccnc21 [III-15] | 5 | 5 | 5 | 5 | 5 | 5 | 5 | 5 |
| C=CCn1c(=O)c(C(=O)C2=C(O)CCCC2=O)nc2cccnc21 [III-30] | 4 | 5 | 5 | 5 | 5 | 5 | 5 | 4 |
| C#CCn1c(=O)c(C(=O)C2=C(O)CCCC2=O)nc2cccnc21 [III-35] | 4 | 5 | 5 | 5 | 5 | 5 | 5 | 4 |
| O=C1CCCC(O)=C1C(=O)c1nc2cccnc2n(CC(F)(F)F)c1=O [III-40] | 4 | 5 | 5 | 5 | 5 | 5 | 5 | 5 |
| O=C1CCCC(O)=C1C(=O)c1nc2cccnc2n(CCF)c1=O [III-45] | 5 | 5 | 5 | 4 | 5 | 5 | 5 | 4 |
| O=C1CCCC(O)=C1C(=O)c1nc2cccnc2n(COCC(F)(F)F)c1=O [III-59] | 5 | 5 | 5 | 5 | 5 | 5 | 5 | 5 |
| COCCn1c(=O)c(C(=O)C2=C(O)CCCC2=O)nc2cccnc21 [III-88] | 5 | 5 | 5 | 5 | 5 | 5 | 4 | 5 |
| COCC(C)n1c(=O)c(C(=O)C2=C(O)CCCC2=O)nc2cccnc21 (stereo not drawn) [III-90] | 5 | 5 | 5 | 5 | 5 | 5 | 5 | 5 |
| CCOC(=O)Cn1c(=O)c(C(=O)C2=C(O)CCCC2=O)nc2cccnc21 [III-96] | 5 | 5 | 5 | 5 | 5 | 5 | 5 | 5 |
| CC(C)(C)OC(=O)Cn1c(=O)c(C(=O)C2=C(O)CCCC2=O)nc2cccnc21 [III-99] | 4 | 5 | 5 | 5 | 5 | 5 | 5 | 5 |
| O=C1CCCC(O)=C1C(=O)c1nc2cccnc2n(Cc2ccccc2)c1=O [III-107] | 4 | 5 | 5 | 4 | 5 | 5 | 5 | 5 |
| O=C1CCCC(O)=C1C(=O)c1nc2cccnc2n(Cc2ccccc2F)c1=O [III-108] | 5 | 5 | 5 | 5 | 5 | 5 | 5 | 5 |
| O=C1CCCC(O)=C1C(=O)c1nc2cccnc2n(Cc2ccccc2Cl)c1=O [III-111] | 5 | 5 | 5 | 5 | 5 | 5 | 5 | 5 |
| O=C1CCCC(O)=C1C(=O)c1nc2cccnc2n(Cc2ccccc2C(F)(F)F)c1=O [III-117] | 5 | 5 | 5 | 5 | 5 | 5 | 5 | 5 |
